Test results published in PubChem BioAssay (NCI).
Values joined by “and” are separate entries in the source; they are usually repeats but may differ in a detail not shown here. Identical values can stand only once.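 Step 1: Grow cells in 96-well plates. Step 2: Expose to compound for 48 hours at 5 concentrations. Step 3: Interpolate endpoints linearly; if unreached, use highest concentration. Abbreviation: GI50, concentration required for 50% inhibition of growth. TGI: total growth inhibition.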

The compounds below were run on MDA-MB-468 breast (assay: inhibition of tumour cell growth, NCI panel, 48 h).

First: COc1ccc(-c2oc3ncnc(N)c3c2-c2ccc(NC(=O)Nc3cc(C(F)(F)F)ccc3F)cc2)cc1
Second: COc1ccc(-c2c(NC(=O)Nc3ccc(Cl)c(C(F)(F)F)c3)cnn2-c2ccc(S(N)(=O)=O)cc2)cc1
The GI50 of the first is 2.3-fold lower: 0.903 µM for the first, 2.05 µM for the second.

Going from CC1(C)N=C(N)N=C(N)N1c1cccc(CCCCc2ccc(Cl)c(S(=O)(=O)F)c2)c1 to Cn1cc(-c2ncnc3ccc(-c4cnc(Cl)c(NS(C)(=O)=O)c4)cc23)c2ccccc21, the GI50 falls from 10.6 µM to 0.183 µM (58-fold).

Compared with Nc1ccccc1NC(=O)c1ccc(NC(=O)C/C=C/c2cccnc2)cc1, O=C(N/N=C/c1ccc([N+](=O)[O-])cc1)c1ccccc1Nc1ccnc(C(F)(F)F)c1 is 17-fold higher in GI50: 0.915 µM for the first, 15.8 µM for the second.

Compared with N#Cc1nc(-c2ccccc2)oc1S(=O)(=O)N1CCN(CCc2ccccn2)CC1, O=c1cc(-c2ccccc2)oc2c(O)c(O)ccc12 is 8.9-fold higher in GI50: 1.6 µM for the first, 14.3 µM for the second.

Compared with COc1ccc2c(c1)C(=O)/C(=C/c1ccc(O)cc1)O2, O=c1oc2ccc(F)cc2c(=O)n1-c1ccc(I)cc1F is 6.4-fold lower in GI50: 2.4 µM for the first, 0.375 µM for the second.

NC(=O)c1ccc(I)c([N+](=O)[O-])c1 and C[C@]1(c2nc3c(C(N)=O)cccc3[nH]2)CCCN1 are within 1.5-fold of each other in GI50: 24.4 µM for the first, 29.7 µM for the second.

Compared with FC(F)(F)c1cccc(Oc2ccc(Nc3ncnc4ccc(OCCCN5CCOCC5)cc34)cc2Cl)c1, COc1cc(OCCCN2CCCC2)ccc1Nc1ncc(Cl)c(Nc2ccccc2P(C)(C)=O)n1 is 2.5-fold higher in GI50: 0.48 µM for the first, 1.22 µM for the second.

First: N#Cc1c(N)c(C(=O)c2ccc3c(c2)OCCO3)n2c1CCCC2
Second: COc1ccc2cc(C(=O)N3CCC([C@@H](C)C(=O)NCc4ccc5c(c4)OCO5)CC3)[nH]c2c1
The GI50 of the first is 35-fold lower: 2.47 µM for the first, 86.2 µM for the second.

Going from CC[C@H](C)[C@H](NC(=O)c1ncccn1)C(=O)N(C)[C@H](C[C@@H](OC(C)=O)c1nc(C(=O)N[C@@H](Cc2ccccc2)C[C@H](C)C(=O)OC)cs1)C(C)C to COC(=O)[C@@H](C)C[C@H](Cc1ccc(F)cc1)NC(=O)c1csc([C@@H](C[C@H](C(C)C)N(C)C(=O)[C@@H](NC(=O)[C@H]2CCCCN2C)C2CC2)OC(C)=O)n1, the GI50 falls from 0.757 µM to 0.138 µM (5.5-fold).

Going from N[C@@H](Cc1c[nH]c2ccccc12)C(=O)NC1CCN(Cc2c[nH]c3ccc(Cl)cc23)CC1 to Oc1c(CN2CCCCC2)ccc2cccnc12, the GI50 rises from 2.43 µM to 4.89 µM (2-fold).

First: COc1nc2c(c(=O)n1C)CN(c1ccccc1)C(=O)CN2C
Second: COC1=CC(c2ccc[nH]2)=N/C1=C\c1[nH]c(C)c(CC(=O)NCc2ccccc2)c1C
The GI50 of the first is 11-fold higher: 13.3 µM for the first, 1.17 µM for the second.

Going from Cc1cccc2c(=O)c3c(sc12)c(NCCCN)nc1ccccc13 to C#Cc1cccc(Nc2nc(C)nc3cc(NC(=O)CCl)ccc23)c1, the GI50 falls from 1.43 µM to 0.77 µM (1.9-fold).

Compared with NC(CCl)=NCC12CC3CC(CC(C3)C1)C2, C=C[C@@H]1CCC/C=C/[C@@H]2C[C@H](O)C[C@H]2[C@H](O)/C=C/C(=O)O1 is 3.8-fold lower in GI50: 0.827 µM for the first, 0.216 µM for the second.

COc1cc2nc(Cl)nc(Nc3cccc(C4=Nc5c(N)nc(N)nc5NC(c5ccc(F)cc5)C4)c3)c2cc1OC (stereo not drawn) and COc1cc(-c2n/c(=C\c3c(O)[nH]c4ccccc34)cc3c2=Nc2ccccc2-3)ccc1F are within 1.5-fold of each other in GI50: 1.79 µM for the first, 2.61 µM for the second.

O=C1NN(C(=O)c2ccccc2)C(c2ccc(Cl)c(Cl)c2)=C/C1=C\c1ccccc1[N+](=O)[O-] and O=C(Nc1ccc(Cl)cc1)c1cc(NCc2cc(O)ccc2O)ccc1O are within 1.5-fold of each other in GI50: 6.14 µM for the first, 4.81 µM for the second.

CC1(C)CC[C@]2(C(=O)NCCNCCN)CC[C@]3(C)C(=CC[C@@H]4[C@@]5(C)CCC(=O)C(C)(C)[C@@H]5CC[C@]43C)[C@@H]2C1 and CCCCNC(=O)Oc1ccc(/C(=C(\C)c2ccc(OC)cc2)c2ccc(OCCN3CCCCC3)cc2)cc1 are within 1.5-fold of each other in GI50: 1.71 µM for the first, 2.08 µM for the second.

Going from Cc1cc(C)c([I+]c2c(C)cc(C)cc2C)c(C)c1 to CCOc1ccc(Nc2ccnc3cc(Cl)ccc23)cc1, the GI50 rises from 0.134 µM to 43.1 µM (320-fold).

Compared with O=C(N/N=C\c1ccc(N(CCCl)CCCl)cc1)c1cccnc1, CCCCCCCC(=O)Nc1nc2[nH]c(CN3CCN(Cc4cccc(I)c4)CC3)c(CN3CCN(Cc4cccc(I)c4)CC3)c2c(=O)[nH]1 is 13-fold lower in GI50: 11 µM for the first, 0.858 µM for the second.

Going from CCCCCCCCCCCCCCCCCC1=NC(C)(C)CN1C(C)(C)CO to CO[C@H]1/C=C/O[C@@]2(C)Oc3c(C)c(O)c4c(O)c(c(/C=N/N5C(C)CN(Cc6ccc(C#N)cc6)CC5C)c(O)c4c3C2=O)NC(=O)/C(C)=C\C=C\[C@H](C)[C@H](O)[C@@H](C)[C@@H](O)[C@@H](C)[C@H](OC(C)=O)[C@@H]1C (stereo partly drawn), the GI50 rises from 1.21 µM to 11 µM (9.1-fold).

Going from COc1ccc(-c2oc3ncnc(N)c3c2-c2ccc(NC(=O)Nc3cc(C(F)(F)F)ccc3F)cc2)cc1 to COc1ccc(-c2c(NC(=O)Nc3ccc(Cl)c(C(F)(F)F)c3)cnn2-c2ccc(S(N)(=O)=O)cc2)cc1, the TGI rises from 2.31 µM to 6.88 µM (3-fold).

Compared with CC1(C)N=C(N)N=C(N)N1c1cccc(CCCCc2ccc(Cl)c(S(=O)(=O)F)c2)c1, Cn1cc(-c2ncnc3ccc(-c4cnc(Cl)c(NS(C)(=O)=O)c4)cc23)c2ccccc21 is 10-fold lower in TGI: 24.5 µM for the first, 2.35 µM for the second.

Compared with Nc1ccccc1NC(=O)c1ccc(NC(=O)C/C=C/c2cccnc2)cc1, O=C(N/N=C/c1ccc([N+](=O)[O-])cc1)c1ccccc1Nc1ccnc(C(F)(F)F)c1 is 16-fold higher in TGI: 2.66 µM for the first, 41.3 µM for the second.

First: N#Cc1nc(-c2ccccc2)oc1S(=O)(=O)N1CCN(CCc2ccccn2)CC1
Second: O=c1cc(-c2ccccc2)oc2c(O)c(O)ccc12
The TGI of the first is 23-fold lower: 3.45 µM for the first, 79.2 µM for the second.

First: COc1ccc2c(c1)C(=O)/C(=C/c1ccc(O)cc1)O2
Second: O=c1oc2ccc(F)cc2c(=O)n1-c1ccc(I)cc1F
The TGI of the first is 5.1-fold higher: 12.4 µM for the first, 2.45 µM for the second.

NC(=O)c1ccc(I)c([N+](=O)[O-])c1 and C[C@]1(c2nc3c(C(N)=O)cccc3[nH]2)CCCN1 cannot be ordered by TGI: over 65.6 µM for the first, over 100 µM for the second.

FC(F)(F)c1cccc(Oc2ccc(Nc3ncnc4ccc(OCCCN5CCOCC5)cc34)cc2Cl)c1 and COc1cc(OCCCN2CCCC2)ccc1Nc1ncc(Cl)c(Nc2ccccc2P(C)(C)=O)n1 are within 1.5-fold of each other in TGI: 2.85 µM for the first, 3.64 µM for the second.

First: N#Cc1c(N)c(C(=O)c2ccc3c(c2)OCCO3)n2c1CCCC2
Second: COc1ccc2cc(C(=O)N3CCC([C@@H](C)C(=O)NCc4ccc5c(c4)OCO5)CC3)[nH]c2c1
The TGI of the first is lower: 23.7 µM for the first, over 100 µM for the second.

CC[C@H](C)[C@H](NC(=O)c1ncccn1)C(=O)N(C)[C@H](C[C@@H](OC(C)=O)c1nc(C(=O)N[C@@H](Cc2ccccc2)C[C@H](C)C(=O)OC)cs1)C(C)C and COC(=O)[C@@H](C)C[C@H](Cc1ccc(F)cc1)NC(=O)c1csc([C@@H](C[C@H](C(C)C)N(C)C(=O)[C@@H](NC(=O)[C@H]2CCCCN2C)C2CC2)OC(C)=O)n1 cannot be ordered by TGI: over 25 µM for the first, over 25 µM for the second.

First: N[C@@H](Cc1c[nH]c2ccccc12)C(=O)NC1CCN(Cc2c[nH]c3ccc(Cl)cc23)CC1
Second: Oc1c(CN2CCCCC2)ccc2cccnc12
The TGI of the first is 3.9-fold lower: 5.74 µM for the first, 22.4 µM for the second.

First: COc1nc2c(c(=O)n1C)CN(c1ccccc1)C(=O)CN2C
Second: COC1=CC(c2ccc[nH]2)=N/C1=C\c1[nH]c(C)c(CC(=O)NCc2ccccc2)c1C
The TGI of the first is 31-fold higher: 80.9 µM for the first, 2.63 µM for the second.

Cc1cccc2c(=O)c3c(sc12)c(NCCCN)nc1ccccc13 and C#Cc1cccc(Nc2nc(C)nc3cc(NC(=O)CCl)ccc23)c1 are within 1.5-fold of each other in TGI: 2.94 µM for the first, 2.18 µM for the second.

Going from NC(CCl)=NCC12CC3CC(CC(C3)C1)C2 to C=C[C@@H]1CCC/C=C/[C@@H]2C[C@H](O)C[C@H]2[C@H](O)/C=C/C(=O)O1, the TGI falls from 6.95 µM to 0.611 µM (11-fold).

Going from COc1cc2nc(Cl)nc(Nc3cccc(C4=Nc5c(N)nc(N)nc5NC(c5ccc(F)cc5)C4)c3)c2cc1OC (stereo not drawn) to COc1cc(-c2n/c(=C\c3c(O)[nH]c4ccccc34)cc3c2=Nc2ccccc2-3)ccc1F, the TGI rises from 3.39 µM to 16.7 µM (4.9-fold).

O=C1NN(C(=O)c2ccccc2)C(c2ccc(Cl)c(Cl)c2)=C/C1=C\c1ccccc1[N+](=O)[O-] and O=C(Nc1ccc(Cl)cc1)c1cc(NCc2cc(O)ccc2O)ccc1O cannot be ordered by TGI: over 6.75 µM for the first, 26.6 µM for the second.

Going from CC1(C)CC[C@]2(C(=O)NCCNCCN)CC[C@]3(C)C(=CC[C@@H]4[C@@]5(C)CCC(=O)C(C)(C)[C@@H]5CC[C@]43C)[C@@H]2C1 to CCCCNC(=O)Oc1ccc(/C(=C(\C)c2ccc(OC)cc2)c2ccc(OCCN3CCCCC3)cc2)cc1, the TGI rises from 3.29 µM to 5.07 µM (1.5-fold).

Compared with Cc1cc(C)c([I+]c2c(C)cc(C)cc2C)c(C)c1, CCOc1ccc(Nc2ccnc3cc(Cl)ccc23)cc1 is higher in TGI: 0.672 µM for the first, over 100 µM for the second.

Going from O=C(N/N=C\c1ccc(N(CCCl)CCCl)cc1)c1cccnc1 to CCCCCCCC(=O)Nc1nc2[nH]c(CN3CCN(Cc4cccc(I)c4)CC3)c(CN3CCN(Cc4cccc(I)c4)CC3)c2c(=O)[nH]1, the TGI falls from 59.6 µM to 1.64 µM (36-fold).

Going from CCCCCCCCCCCCCCCCCC1=NC(C)(C)CN1C(C)(C)CO to CO[C@H]1/C=C/O[C@@]2(C)Oc3c(C)c(O)c4c(O)c(c(/C=N/N5C(C)CN(Cc6ccc(C#N)cc6)CC5C)c(O)c4c3C2=O)NC(=O)/C(C)=C\C=C\[C@H](C)[C@H](O)[C@@H](C)[C@@H](O)[C@@H](C)[C@H](OC(C)=O)[C@@H]1C (stereo partly drawn), the TGI rises from 2.56 µM to 39.9 µM (16-fold).

For COC(=O)[C@@H](C)C[C@H](Cc1ccccc1)NC(=O)c1csc([C@@H](C[C@H](C(C)C)N(C)C(=O)[C@@H](NC(=O)[C@H]2CCCCN2C)c2ccc(F)cc2)OC(C)=O)n1, the GI50 was 0.00417 µM and 0.0025 µM and 0.0163 µM.

For COC(=O)[C@@H](C)C[C@H](Cc1ccccc1)NC(=O)c1csc([C@@H](C[C@H](C(C)C)N(C)C(=O)[C@@H](NC(=O)[C@H]2CCCCN2C)c2ccc(F)cc2)OC(C)=O)n1, the TGI was 25 µM and > 100 µM.
